Data taken from US7582786B2, “Synthetic catalytic free radical scavengers useful as antioxidants for prevention and therapy of disease” (Eukarion Inc., priority 1996, dated 2009).

Legend:
[1] = Peroxidase activity with t-BHP as substrate, ABTS oxidation; type: biochemical
Procedure: Peroxidase activity was assayed by monitoring the hydrogen peroxide-dependent oxidation of 2,2′-azino-bis(3-ethylbenzthiazoline-6) sulfonic acid (ABTS) spectrophotometrically. Standard assay mixtures consisted of 50 mM sodium phosphate, pH 8.1, 0.9% sodium chloride, 0.5 mM ABTS, and H2O2 and salen manganese complex as indicated. Where indicated, 50 mM sodium phosphate buffers of pH 6.0 or pH 7.1 were substituted. Assays were conducted at 27±0.2° C. ABTS oxidation was monitored at 740 or 500 nm to eliminate interference by the salen manganese complexes, many of which absorb in the vicinity of the λmax of oxidized ABTS, and to avoid absorbance values that exceeded the linear range of the spectrophotometer. The amount of oxidized ABTS was estimated using an Δε740 of 20,300 M^−1cm^−1 or an Δε500 of 3400 M^−1cm^−1 calculated based upon the published molar extinction coefficient oat 405 nm (36,800).
(In comparison, horseradish peroxidase utilized t-BHP with an ABTS oxidation rate that was about 5.4% of the rate with H2O2).

[2] = Peroxidase activity, H2O2-dependent oxidation of ABTS (Example 2); type: biochemical; conditions: for Peroxidase rate: 10 μM salen manganese complex, 0.2 mM H2O2; for Peroxidase: relative to C7 (C7 = 100)
Summary of the method: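 ABTS oxidation by salen manganese complex (10 μM) with 0.2 mM H2O2 in 50 mM sodium phosphate pH 8.1 (or pH 6.0/7.1 where indicated), 0.9% NaCl, 0.5 mM ABTS, 27±0.2 °C. Oxidized ABTS read spectrophotometrically at 740 or 500 nm and quantified from Δε740 20,300 or Δε500 3400 M^−1cm^−1.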

[3] = SOD activity, inhibition of cytochrome C reduction by xanthine plus xanthine oxidase (Example 1); type: biochemical; conditions: Example 1, cytochrome C reduction
Procedure: The SOD activity of the compounds was determined by evaluating the inhibition of the reduction of cytochrome C produced by the oxygen free radical generating system, xanthine plus xanthine oxidase. Cytochrome C reduction is monitored spectrophotometrically at 550 nm according to the method described in Darr et al. (1987) Arch. Biochem. Biophys. 258: 351, incorporated herein by reference. The concentration of xanthine oxidase is adjusted such that it produces a rate of reduction of cytochrome C at 550 nm of 0.025 absorbance unit per minute. Under these conditions, the amount of SOD activity required to inhibit the rate of cytochrome C reduction by 50 percent (i.e., to a rate of 0.0125 absorbance unit per minute) is defined as one unit of activity. Salen-metal complexes are identified as antioxidants if they have at least 0.1 unit of activity at a concentration of 1 mM under these standard assay conditions.

[4] = Catalase activity, decomposition of hydrogen peroxide monitored at 240 nm (Example 1); type: biochemical; conditions: Example 1, H2O2 decomposition at 240 nm
Procedure: Catalase activity was measured using a spectrophotometric method in which the decomposition of hydrogen peroxide is monitored at 240 nm according to the method of Aebi et al. (1984) Methods Enzymol. 105: 121, incorporated herein by reference. One unit of catalase activity is defined as the amount of enzyme (or salen-metal complex) required to decompose 1 μmole of hydrogen peroxide in one minute.

[5] = tested on: Human dermal fibroblasts (HF cells); test: Cell protection assay, tert-butylhydroperoxide (t-BHP) toxicity, XTT; type: cell-based; conditions: for Cell viability, absorbance at 490 nm uncorrected for blank: t-BHP 0.5 mM
Procedure: (§1) Human dermal fibroblasts (HF cells) were obtained from the American type tissue Culture Collection at passage 1 and cultured and propagated in a medium (HF medium) consisting of Dulbecco's Modified Eagle's Medium with 4.5 g/l D-glucose, 10% calf serum 4 mM glutamine, 50 units/ml penicillin, and 50 μg/ml streptomycin in a 37° C. humidified incubator equilibrated with 5% CO2. Cells were used at passages 5 or 6 for experiments. For cell protection assays, HF cells were seeded at a density of about 15,000 cells per cm2 onto 96-well culture plates and allowed to grow to confluence. To assess protection tert-butylhydroperoxide (t-BHP) toxicity, confluent cell layers were first treated with the indicated concentrations of test compounds dissolved in HF medium for 18 hr. The medium was then replaced with fresh medium containing test compounds and 0.5 mM tert-butylhydroperoxide (t-BHP) and cells were incubated for another 18 hr. The medium was then removed and replaced with fresh HF medium (100 μl per well) without test compounds or t-BHP. Fifty μl of XTT reagent (Boeringer Mannheim, Inc.), prepared as described by the manufacturer, was then added to each well and the plates returned to the incubator. After 2 hr., the absorbance at 490 nm was measured in a BioRad (Richmond, Calif.) Model 3550 plate-reader, using a reference wavelength of 655 nm. Control cells that had not been exposed to test compounds or toxic agents were included among the samples treated with XTT reagent. Absorbance measurements for blank wells, containing HF medium and XTT reagent but no cells, were also determined. To analyze protection from glucose/glucose oxidase toxicity, confluent cell layers were incubated with HF medium containing glucose oxidase (0.019 units/ml) along with test compounds, as indicated, for 18 hr in the tissue culture incubator. Fresh HF medium was then added and cell viability assessed using the XTT reagent as described above. For both these models, concentrations of toxic agents were selected that were reproducibly completely lethal. Cytotoxicity assessments were routinely confirmed by visual inspection of the cell layers prior to addition of the XTT reagent.

[6] = tested on: Human dermal fibroblasts (HF cells); test: Cell protection assay, glucose/glucose oxidase toxicity, XTT; type: cell-based
Procedure: as §1
Catalase and peroxidase activities were assayed as described in Example 2. Catalase assays contained 10 μM salen-manganese complex and 10 mM hydrogen peroxide. Peroxidase assays contained 10 μM salen-manganese complex and 0.2 mM hydrogen peroxide. Glucose-glucose oxidase toxicity assays were performed using human dermal fibroblasts as described in Example 2.

[7] = SOD activity, xanthine/xanthine oxidase with cytochrome C as acceptor (Example 2); type: biochemical; conditions: relative to C7 (C7 = 100)
Summary of the method: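 Superoxide was generated by 120 µM xanthine and 0.2 U/ml xanthine oxidase in 50 mM sodium phosphate pH 7.8 at 27 °C, with salen manganese compounds at ≥4 concentrations in duplicate.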

brain homogenates = test: Iron-induced lipid peroxidation in brain homogenates (MDA); type: biochemical, rat
Procedure: Lipid peroxidation was induced by incubating a mixture consisting of 0.25 ml homogenate, 0.25 ml ASCF with test compounds, and 10 μM FeCl2 for 1 hr at 35° C. under an atmosphere equilibrated with O2:CO2(95:5). Following the incubation, 0.1 ml of the sample was extracted with trichloroacetic acid and analyzed for thiobarbituric acid reactive material as described previously, using authentic malonyldialdehyde (MDA) as a standard.

[8] = Catalase activity, conversion of H2O2 to oxygen, polarographic oxygen electrode (Example 2); type: biochemical
Summary of the method: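 Clark-type oxygen electrode at 25 °C in 50 mM sodium phosphate pH 8.1, 0.9% NaCl, with 10 μM salen-manganese complex and 10 mM H2O2. Initial rates from slope of first ~5 s, corrected for H2O2-alone rate; endpoint O2 as maximal minus pre-substrate baseline.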

[9] = 10 μM salen manganese complex, 10 mM H2O2

Molecule	Cell viability, absorbance at 490 nm uncorrected for blank ([5]; 2.5 μM)	Cell viability, absorbance at 490 nm uncorrected for blank ([5]; 5 μM)	Cell viability, absorbance at 490 nm uncorrected for blank ([5]; 10 μM)	Cell viability, absorbance at 490 nm uncorrected for blank ([5]; 20 μM)	Cell viability, absorbance at 490 nm uncorrected for blank ([5]; 40 μM)	synergistic toxicity with t-BHP ([5]; 80 μM)	Cell viability, absorbance at 490 nm uncorrected for blank ([5]; 80 μM)	protection against glucose and glucose oxidase (in words) [6]	peroxidase rate with t-BHP relative to C32 [1]	SOD [7]	Peroxidase rate [2]	Peroxidase [2]	MDA levels, percent of control (brain homogenates; 1 μM)	MDA levels, percent of control (brain homogenates; 5 μM)	MDA levels, percent of control (brain homogenates; 10 μM)	MDA levels, percent of control (brain homogenates; 25 μM)	Catalase rate [8, 9]	Endpoint [8, 9]	Catalase endpt. ([8]; relative to C7 (C7 = 100))	Catalase rate ([8]; relative to C7 (C7 = 100))	further results
horseradish peroxidase	–	–	–	–	–	–	–	–	–	–	–	–	–	–	–	–	–	–	–	–	ABTS oxidation rate with t-BHP, percent of rate with H2O2 ([1]; 1 mM t-BHP): about 5.4%; rate of ABTS oxidation ([2]; 13.2 units/ml, pH 8.1, 1 mM H2O2): 99.3 µM/min
CC(C)(C)c1cc2c(c(C(C)(C)C)c1)[O][Mn]([Cl])[O]c1c(cc(C(C)(C)C)cc1C(C)(C)C)C=NC1CCCCC1N=C2 (stereo not drawn) [Compound C10]	–	–	–	–	–	–	–	–	–	–	–	–	–	–	–	–	–	–	–	–	SOD Activity [3]: 69 units/mM; Catalase Activity [4]: 179 units/mM
CC(=O)[O][Mn]1[O]c2c(F)cccc2C=NCCN=Cc2cccc(F)c2[O]1 [Compound C36]	0.28 ± 0.01	0.29 ± 0.01	1.13 ± 0.05	1.44 ± 0.04	1.28 ± 0.45	possible synergistic toxicity	0.79 ± 0.34	about equally as effective as C7	about twice as fast as C32	104	22.2 ± 0.8 μM ABTS oxidized/min	129	95%	37%	16%	4%	167.5 ± 9.8 μM O2/min	27.9 ± 2.3 maximal μM O2	104	128	–
CC(=O)[O][Mn]1[O]c2ccccc2C=NCCN=Cc2ccccc2[O]1 [Compound C31]	0.28 ± 0.01	1.25 ± 0.09	1.41 ± 0.08	1.40 ± 0.06	1.30 ± 0.03	possible synergistic toxicity	1.16 ± 0.09	about equally as effective as C7	–	101	21.3 ± 0.5 μM ABTS oxidized/min	114	108%	22%	6%	0%	131.9 ± 12.9 μM O2/min	29.6 ± 0.5 maximal μM O2	81	92	–
COc1ccc2c(c1)[O][Mn]([O]C(C)=O)[O]c1cc(OC)ccc1C=NCCN=C2 [Compound C33]	0.27 ± 0.01	0.27 ± 0.01	1.35 ± 0.08	1.44 ± 0.08	1.50 ± 0.11	–	1.36 ± 0.02	about equally as effective as C7	–	68	0.8 ± 0.2 μM ABTS oxidized/min	4	98%	38%	16%	7%	53.9 ± 8.7 μM O2/min	12.6 ± 1.3 maximal μM O2	44	38	–
Fc1cccc2c1[O][Mn]([Cl])[O]c1c(F)cccc1C=NCCN=C2 [Compound C37]	0.28 ± 0.01	0.28 ± 0.01	1.20 ± 0.06	1.42 ± 0.05	1.53 ± 0.02	possible synergistic toxicity	1.20 ± 0.02	about equally as effective as C7	about twice as fast as C32	115	23.3 ± 0.6 μM ABTS oxidized/min	92	94%	43%	25%	8%	182.6 ± 26.8 μM O2/min	28.3 ± 0.5 maximal μM O2	104	117	–
